From PubChem BioAssay AID1963828 (Molecular Pharmacology Branch, DTP, NCI, 2024)
pIC50: −log10 of the molar value. “And” between values parts separate entries of the source, which are not always exact repeats. Equal values may be shown once.

Test system: 991263-137-R1-J2-PDC complex spheroid viability
Assay: Anticancer human tumor 991263-137-R1-J2-PDC patient-derived colon adenocarcinoma cell line growth inhibition [POLQ]
Settings: for viability, T/C: stronger effect = lower value
Protocol: Multicellular complex tumor spheroid response to Polymerase (POL) inhibitors (novobiocin, ART-558, RP6685) in combination with a variety of drugs and investigational agents in selected tumor cell lines
The POL inhibitors (novobiocin, ART-558, and RP6685) were evaluated both individually and in combination with standard of care and investigational anticancer small molecules within a complex spheroid model of solid tumors. . Complex spheroids include a stromal component modeled by human endothelial cells (HUVEC) and fibroblasts modeled by human mesenchymal stem cells (MSCs). The concentration ranges selected for each drug and investigational agent were based upon clinically achievable concentrations if the clinical Cmax of the agent was known.
Compounds. The drugs and investigational agents: novobiocin (NSC847541), ART-558 (NSC835418), RP-6685 (NSC848927), peposertib (NSC802822), ceralasertib (NSC780249), elimusertib (NSC800525), camonsertib (NSC841442), AZD-1390 (NSC803789), olaparib (NSC753686), talazoparib (NSC767125), rucaparib (NSC756644), sotorasib (NSC818433), MRTX-1133 (NSC836407), SN-38 (NSC673596), topotecan (NSC609699), epotoside (NSC141540), doxorubicin (NSC123127), gemcitabine (NSC613327), 5-fluorouracil (NSC19893), paclitaxel (NSC125973), vemurafenib (NSC761431), MSA-2 (NSC828583), SN-011 (NSC837082), adavosertib (NSC754352), prexasertib (NSC758257), carboplatin (NSC241240) and oxaliplatin (NSC266046), were obtained from the National Cancer Institute (NCI) Developmental Therapeutics Program Chemical Repository (21). The FDA-approved anticancer drug set is available from the Developmental Therapeutics Program at https://dtp.cancer.gov/organization/dscb/obtaining/. […] The stock solutions were prepared in dimethyl sulfoxide (DMSO, Sigma-Aldrich, St. Louis, MO, cat. D2650), except for the platinum compounds which were prepared in saline (Quality Biological, Gaithersburg, MD, cat. 114-055-101), at 800-fold the tested concentration and stored at -70 degrees C prior to their use. All drugs and investigational agents were tested over a range starting from a high concentration at or near the clinical Cmax and decreasing in half-log increments. If the clinical Cmax for an agent had not been determined, the highest concentration tested was 10 microM, except for SN-38, which was tested at a high concentration of 1 microM.
Cell Culture. All cells were maintained in an incubator at 37 degrees C and 5% CO2 with 95% humidity. The PDC lines were cultured according to standard operating procedures established by the NCI PDMR (https://pdmr.cancer.gov). Table 3 of the manuscript, lists the cell lines along with the number of the three cell types plated to form the mct-spheroids and media for tumor cell growth. After thawing, all PDC lines, except 997537-175-T-J1-PDC and 415267-285-R-J2-PDC, were cultured in Matrigel-coated flasks prepared with a working solution of 1X Ham's F-12 nutrient mix, without supplementation (Thermo Fisher Scientific, cat. 11765054), 100 U/mL penicillin-streptomycin (Thermo Fisher Scientific, cat. 15140122), and 2.5% Matrigel (Corning Inc., Corning, NY, cat. 354248) for the first three passages. The two PDC lines 997537-175-T-J1-PDC and 415267-285-R-J2-PDC were cultured on uncoated flasks. The 857933-349-R-J2-PDC line was cultured in 6C/Colon 1B media containing advanced DMEM/F-12 (Thermo Fisher Scientific, cat. 12634028), 10 mM HEPES (Thermo Fisher Scientific, cat. 15630080), 1X GlutaMAX supplement (Thermo Fisher Scientific, cat. 35050061), 0.1 mg/mL primocin (InvivoGen, San Diego, CA, cat. ant-pm-2), 10% defined fetal bovine serum, heat inactivated (HyClone Laboratories Inc., Logan, UT, cat. SH30070.03HI), 50% L-WRN conditioned media (ATCC, cat. CRL-3276), 1.25 mM N-Acetyl-L-cysteine (Sigma-Aldrich, cat. A9165), 10 mM nicotinamide (Sigma-Aldrich, cat. N0636), 1X B-27 supplement (Thermo Fisher Scientific, cat. 17504044), 1X N-2 supplement (Thermo Fisher Scientific, cat. […]

[1] = curve of first compound, second compound 0.0316 µM
[2] = curve of first compound, second compound 0.1 µM
[3] = curve of first compound, second compound 0.316 µM
[4] = curve of first compound, second compound 1 µM
[5] = curve of first compound, second compound 3.16 µM
[6] = curve of first compound, second compound 10 µM
[7] = second compound 0.0316 µM, first compound 0.0316 µM
[8] = second compound 0.0316 µM, first compound 0.1 µM
[9] = second compound 0.0316 µM, first compound 0.316 µM
[10] = second compound 0.0316 µM, first compound 1 µM
[11] = second compound 0.0316 µM, first compound 3.16 µM
[12] = second compound 0.0316 µM, first compound 10 µM
[13] = second compound 0.1 µM, first compound 0.0316 µM
[14] = second compound 0.1 µM, first compound 0.1 µM
[15] = second compound 0.1 µM, first compound 0.316 µM
[16] = second compound 0.1 µM, first compound 1 µM
[17] = second compound 0.1 µM, first compound 3.16 µM
[18] = second compound 0.1 µM, first compound 10 µM
[19] = second compound 0.316 µM, first compound 0.0316 µM
[20] = second compound 0.316 µM, first compound 0.1 µM
[21] = second compound 0.316 µM, first compound 0.316 µM
[22] = second compound 0.316 µM, first compound 1 µM
[23] = second compound 0.316 µM, first compound 3.16 µM
[24] = second compound 0.316 µM, first compound 10 µM
[25] = second compound 1 µM, first compound 0.0316 µM
[26] = second compound 1 µM, first compound 0.1 µM
[27] = second compound 1 µM, first compound 0.316 µM
[28] = second compound 1 µM, first compound 1 µM
[29] = second compound 1 µM, first compound 3.16 µM
[30] = second compound 1 µM, first compound 10 µM
[31] = second compound 3.16 µM, first compound 0.0316 µM
[32] = second compound 3.16 µM, first compound 0.1 µM
[33] = second compound 3.16 µM, first compound 0.316 µM
[34] = second compound 3.16 µM, first compound 1 µM
[35] = second compound 3.16 µM, first compound 3.16 µM
[36] = second compound 3.16 µM, first compound 10 µM
[37] = second compound 10 µM, first compound 0.0316 µM
[38] = second compound 10 µM, first compound 0.1 µM
[39] = second compound 10 µM, first compound 0.316 µM
[40] = second compound 10 µM, first compound 1 µM
[41] = second compound 10 µM, first compound 3.16 µM
[42] = second compound 10 µM, first compound 10 µM
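Note: spheroids exposed to compounds for 7 days before readout.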
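Throughout, for viability, T/C: 100% = DMSO vehicle control viability.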

CC1COCCN1c1cc(C2(S(C)(=N)=O)CC2)nc(-c2ccnc3[nH]ccc23)n1 (stereo not given) + COC1C(OC(N)=O)C(O)C(Oc2ccc3c(O)c(NC(=O)c4ccc(O)c(CC=C(C)C)c4)c(=O)oc3c2C)OC1(C)C
pIC50 [1]: < 5.00
pIC50 [2]: < 5.00
pIC50 [3]: < 5.00
pIC50 [4]: < 5.00
pIC50 [5]: < 5.00
pIC50 [6]: < 5.00
viability, T/C [7]: 99.2%
viability, T/C [8]: 84.5%
viability, T/C [9]: 104%
viability, T/C [10]: 87%
viability, T/C [11]: 91.5%
viability, T/C [12]: 66.1%
viability, T/C [13]: 113%
viability, T/C [14]: 112%
viability, T/C [15]: 101%
viability, T/C [16]: 89.2%
viability, T/C [17]: 97.6%
viability, T/C [18]: 55.4%
viability, T/C [19]: 96.3%
viability, T/C [20]: 106%
viability, T/C [21]: 89.9%
viability, T/C [22]: 69.6%
viability, T/C [23]: 104%
viability, T/C [24]: 83.8%
viability, T/C [25]: 106%
viability, T/C [26]: 103%
viability, T/C [27]: 91.2%
viability, T/C [28]: 89.5%
viability, T/C [29]: 96.5%
viability, T/C [30]: 79.9%
viability, T/C [31]: 92.8%
viability, T/C [32]: 85.9%
viability, T/C [33]: 98.3%
viability, T/C [34]: 106%
viability, T/C [35]: 103%
viability, T/C [36]: 84%
viability, T/C [37]: 86.8%
viability, T/C [38]: 106%
viability, T/C [39]: 105%
viability, T/C [40]: 96.6%
viability, T/C [41]: 107%
viability, T/C [42]: 70.9%

COc1cc(C2c3cc4c(cc3C(OC3OC5COC(C)OC5C(O)C3O)C3COC(=O)C23)OCO4)cc(OC)c1O (stereo not given)
viability, T/C (compound 0.0316 µM): 105% and 96.4% and 99.6%
viability, T/C (compound 0.1 µM): 86.2% and 94.5% and 92.4%
viability, T/C (compound 1 µM): 97.8% and 95.9% and 92.5%
viability, T/C (compound 3.16 µM): 77.9% and 88.6% and 71.9%
viability, T/C (compound 10 µM): 69.9% and 77% and 77.1%
pIC50 (curve of compound): < 5.00

CCc1cc2c(N3CCc4c(cc(Cn5ccnc5)cc4-c4cn(C)nc4C(F)(F)F)C3=O)cc(C)nc2c(OC)n1 + Nc1ccc(C#CCN(C(=O)Cc2ncc(C(F)(F)F)cc2C(F)(F)F)c2ccc(F)cc2)nn1
pIC50 [1]: < 5.00
pIC50 [2]: < 5.00
pIC50 [3]: < 5.00
pIC50 [4]: < 5.00
pIC50 [5]: < 5.00
pIC50 [6]: < 5.00
viability, T/C [7]: 99.3%
viability, T/C [8]: 104%
viability, T/C [9]: 107%
viability, T/C [10]: 98.7%
viability, T/C [11]: 89.8%
viability, T/C [12]: 92.2%
viability, T/C [13]: 105%
viability, T/C [14]: 99.9%
viability, T/C [15]: 102%
viability, T/C [16]: 98.2%
viability, T/C [17]: 109%
viability, T/C [18]: 96.9%
viability, T/C [19]: 102%
viability, T/C [20]: 112%
viability, T/C [21]: 103%
viability, T/C [22]: 103%
viability, T/C [23]: 87.7%
viability, T/C [24]: 104%
viability, T/C [25]: 107%
viability, T/C [26]: 107%
viability, T/C [27]: 93.2%
viability, T/C [28]: 90.5%
viability, T/C [29]: 104%
viability, T/C [30]: 93%
viability, T/C [31]: 94.6%
viability, T/C [32]: 99.9%
viability, T/C [33]: 98.6%
viability, T/C [34]: 96.6%
viability, T/C [35]: 95.6%
viability, T/C [36]: 83.9%
viability, T/C [37]: 94.6%
viability, T/C [38]: 103%
viability, T/C [39]: 98.2%
viability, T/C [40]: 92.7%
viability, T/C [41]: 94.9%
viability, T/C [42]: 93.2%
